Laboratory results as given in patent US9393216B2, “Vaginal matrices: nanofibers for contraception and prevention of HIV infection” (priority 2012, dated 2016).
Like-named read-outs stand apart in the source and are kept apart here.

Key:
[1] = Drug stability in fibers stored at room temperature; format: physicochemical; conditions: PLLA/PEO meshes, at least five months
Experimental: Plates were then digitized using a scanner. Drug loading and stability is measured using fibers stored at room temperature (19-22° C.) for at least five months. […] UV-HPLC is used to quantify amount of drug in samples as previously described. Encapsulation efficiency is calculated as the amount of drug in drug-loaded fibers relative to the amount of drug detected in dissolved blank fibers spiked at 1% (wt/wt) drug loading.

TZM-bl cells = experiment: Cytotoxicity in TZM-bl cells (CellTiter Blue); format: cell-based; conditions: for Cytotoxicity to TZM-bl cells: 48 h exposure to 24 h eluates of PVA fabrics, 20 wt.% theoretical loading
Experimental: TZM-bl cells and HIV-1 BaL isolate are obtained. TZM-bl cells are a HeLa derived cell line that express CD4, CCR5 and CXCR4. Cells re plated in a black 96-well plate at a density of 5,000 cells/well (Corning, Corning, N.Y.) and maintained in Dulbecco's Modified Eagle Medium (DMEM) (Gibco Life Technologies) with 10% fetal bovine serum (Hyclone), 1% 100× penicillin/streptomycin (Invitrogen) and 1% 200 mM L-glutamine. […] Fibers were sterilized by UV irradiation for one hour per side prior to use. Treatments were added at a volume of 50 μL. Cytotoxicity is analyzed using the CellTiter Blue assay (Promega) to assess TZM-bl cell viability after 48 h of exposure to drug eluates from fiber release in cDMEM (24 h release, triplicate wells for each sample). Percent viability is calculated by normalizing to the average of media control wells (n=9). […] Positive control (12.5% DMSO) results in 4.6% viability. Data represents triplicate wells with error bars indicating standard deviation.

HIV-1 BaL [2] = experiment: HIV-1 BaL infection inhibition assay in TZM-bl cells (luciferase); format: cell-based
Experimental: TZM-bl cells and HIV-1 BaL isolate are obtained. TZM-bl cells are a HeLa derived cell line that express CD4, CCR5 and CXCR4. Cells re plated in a black 96-well plate at a density of 5,000 cells/well (Corning, Corning, N.Y.) and maintained in Dulbecco's Modified Eagle Medium (DMEM) (Gibco Life Technologies) with 10% fetal bovine serum (Hyclone), 1% 100× penicillin/streptomycin (Invitrogen) and 1% 200 mM L-glutamine. […] Fibers were sterilized by UV irradiation for one hour per side prior to use. Treatments were added at a volume of 50 μL. […] Percent viability is calculated by normalizing to the average of media control wells (n=9). For composite fabrics, the drug concentration shown applies to both the amount of LNG and of TFV (1:1 ratio). […] Data represents triplicate wells with error bars indicating standard deviation.
Inhibition of infectious activity is quantified by measuring luminescence on a plate reader (Tecan). IC50 values of drug compounds re estimated using sigmoidal regression in Graphpad Prism, version 5.0.
TZM-bl cells and HIV-1 BaL isolate re obtained from the NIH AIDS Research and Reference Reagent Program, Division of AIDS, NIAID, NIH (http://www.aidsreagent.org/). TZM-bL cells, a derived HeLa cell line that expresses CD4, CCR5, and CXCR4, were added to black 96-well plates (Corning, Corning, N.Y.) with Dulbecco's Modified Eagle Medium (DMEM) (Gibco Life Technologies) with 10% fetal bovine serum (Hyclone), 1% 100× penicillin/streptomycin (Invitrogen), and 1% 200 mM L-glutamine (Invitrogen) with […] at a density of 5,000 cells/well. […] Fibers re sterilized by UV irradiation for 2 h (1 h per side). Treatments were added in […]. For the HIV-infectious inhibition assay, […] (240 TCID/well) are added to wells 1 h after drug treatment. […] Infectious activity is quantified by measuring luminescence on a plate reader (Tecan).
TZM-bl cells and HIV-1 BaL isolate re obtained from the NIH AIDS Research and Reference Reagent Program, Division of AIDS, NIAID, NIH (http://www.aidsreagent.org/). TZM-bL cells, a derived HeLa cell line that expresses CD4, CCR5, and CXCR4, are added to black 96-well plates (Corning, Corning, N.Y.) with Dulbecco's Modified Eagle Medium (DMEM) (Gibco Life Technologies) with 10% fetal bovine serum (Hyclone), 1% 100× penicillin/streptomycin (Invitrogen), and 1% 200 mM L-glutamine (Invitrogen) with 50 μL/well at a density of 5,000 cells/well. […] Treatments are diluted serially and randomly assigned to treatments A-E. A second operator, blinded to the identity of the treatments, added each in 50 μL volumes into duplicate wells (n=1 was used for PVP (D) and PEO Tween 20 (E) formulations only due to space limitations on the 96-well plate). 100 μL of HIV-BaL (240 TCID/well) was added to wells 1 h after drug treatment. […] Infectious activity was quantified by measuring luminescence on a plate reader (Tecan).

HIV = conditions: cited from earlier work
[3] = DPV release from PVP and EC fibers; format: physicochemical
human swim-out sperm = experiment: Sperm motility assay; format: cell-based; conditions: for Inhibition of sperm function: motility of purified (swim-out) human sperm
Experimental: (§1) Sperm is obtained from two donors for sperm motility experiments. A third donor is recruited for sperm viability assays with glycerol monolaurate. Swim out sperm are obtained as described previously. Briefly, one can place 0.5 mL aliquots of semen below 3 mL of Ham's F-10 media (Sigma-Aldrich) with 0.5% human serum albumin (Sigma-Aldrich) for 75 min in 5% CO2 and 37° C. The aspirate, enriched for motile sperm, was centrifuged at 300 RCF for five min and resuspended in fresh Ham's F-10 to a concentration of 20×10^6 sperm/mL. The effect of drug dilutions on sperm motility are performed both in whole semen and in swimout sperm by adding […] of sperm and drugs to a slide and observing sperm motility with phase contrast either at 200× and 37° C. (ECLIPSE Ti, Nikon), or by adding 200 […] and quantifying sperm motility with computer aided motility analysis for up to 7 min after the addition of drug. Multiple media only controls are run to ensure that any observed change in motility was minimally dependent upon time since ejaculation. Sperm viability was measured by adding 20 […] of Trypan blue (Sigma-Aldrich) and counting 100 live or dead sperm based on head staining after a 10 min incubation using brightfield microscopy.

[4] = tested on: human sperm in whole semen; experiment: Sperm viability assay (Trypan blue); format: cell-based
Experimental: as §1

[5] = In vitro release of TFV and LNG from PVA fabrics in 1:1 isopropanol:water; format: physicochemical
Experimental: Drug loading is analyzed by dissolving approximately 5 mg of fibers in 20 mL of a mixture of 1:1 isopropanol:water in a glass vial. Triplicate samples are allowed to dissolve overnight at 37° C. on a rotational shaker and concentration is quantified using a Shimadzu Prominence LC20AD UV-HPLC system. A Phenomenex Luna C18 column (5 μM, 250×4.6 mm) and LC Solutions software are used to analyze samples.
A method for dual analysis of TFV and LNG is developed using the following gradient method using mobile phase A (0.1% formic acid in water) and mobile phase B (acetonitrile). The run consisted of 0-5 minutes 72% mobile phase A, 5-10 minutes ramp to 15% mobile phase A, 10-20 minutes 15% mobile phase A, 20-25 minutes ramp to 72% mobile phase A, 25-30 minutes 72% mobile phase A. The total method time is 30 minutes, with an oven temperature of 30° C., a flow rate of 1 mL/min, and an injection volume of 20 μL. LNG is detected at 238 nm at a retention time of 18.5 minutes. TFV is detected at 259 nm at a retention time of 2.3 minutes.
In vitro release was analyzed in a 1:1 solution of isopropanol:water due to the limited solubility of LNG in water. Sink conditions were maintained throughout the study for both drugs in the release media. Approximately 5 mg of fibers were prepared in triplicate and an appropriate volume of release media was added to maintain sink conditions of 2.6 mg/mL LNG as has been reported. Samples were incubated at 37° C. on a rotational shaker, and 200 μL samples of release media was taken as indicated. Fresh media was added to replace sample volume at each timepoint.

[6] = Cumulative release of TFV from PVA fiber meshes at pH 4.3 and pH 7.4; format: physicochemical; conditions: pH 4.3 and 7.4, small and large scale
Experimental: FIG. 26. Burst release of TFV within 5 minutes at pH 4.3 and 7.4 is similar for meshes electrospun on small scale and large scales. Graphs display cumulative release of TFV in pH 4.3 citrate buffer (a,c) or pH 7.4 PBS (b,d) for fibers spun on small scale versus large scale instruments for pH adjusted and unadjusted solutions.

HIV-1 BaL [7] = conditions: free (unformulated) drug; as reported previously; read-out: IC50 of free TFV; cited from earlier work
[8] = Human immunodeficiency virus 1, BAL, TZM-bl, read-out: Final ARV drug concentration at IC50, drugs released from EC fibers (sustained)
[9] = Human immunodeficiency virus 1, BAL, TZM-bl, read-out: Final ARV drug concentration at IC50, drugs released from PVA fibers (pericoital)
[10] = single-drug PVA fibers, calculated for assumed 500 mg of fabric

Cc1cn([C@H]2C[C@H](N=[N+]=[N-])[C@@H](CO)O2)c(=O)[nH]c1=O [AZT, 3′-azido-3′-deoxythymidine]
Initially-loaded drug detected in stored fiber meshes [1]: 0.95%
Toxicity to TZM-bL cells (TZM-bl cells; compared with media controls): nontoxic
IC50 (HIV-1 BaL [2]; Human immunodeficiency virus 1, BAL, TZM-bl, read-out: IC50, drug eluted from fibers): 84 nM
IC50 (HIV-1 BaL [2]; Human immunodeficiency virus 1, BAL, TZM-bl, read-out: IC50, unformulated drug): 120 nM

C[S+](C)[O-] [DMSO]
Viability, positive control (TZM-bl cells): 4.6%

Cc1cc(C)c(Nc2ccnc(Nc3ccc(C#N)cc3)n2)c(C)c1 [DPV, dapivirine]
Duration of prevention of localized and disseminated infection posttreatment (HIV): ≤ 6 days
DPV release characteristics ([3]; from EC fibers): sustained release
DPV release characteristics ([3]; from PVP fibers): burst-release

Cc1cc(C#N)cc(C)c1Oc1nc(Nc2ccc(C#N)cc2)nc(N)c1Br [ETR, etravirine]
IC50 (HIV-1 BaL [2]; [8]): 2.7 nM
IC50 (HIV-1 BaL [2]; [9]): 0.7 nM

CCCCCCCCCCCC(=O)OCC(O)CO (centres unmarked) [GML, glycerol monolaurate]
Concentrations that inhibited sperm motility (complete spermiostasis) (human swim-out sperm): 0.05-0.5 % (wt/vol)
EC50, reduction of sperm motility (human swim-out sperm; at 2 min): 0.005 % wt/vol
Lowest concentration with reduction in motility (human swim-out sperm; no complete spermiostasis): ≥ 0.00005 % (wt/vol)
Reduction of sperm viability ([4]; 5% (wt/vol)): 33.1%
Reduction of sperm viability ([4]; concentration not given): 19.6%

C#C[C@]1(O)CC[C@H]2[C@@H]3CCC4=CC(=O)CC[C@@H]4[C@H]3CC[C@@]21CC [LNG, levonorgestrel]
Cytotoxicity to TZM-bl cells (TZM-bl cells): induced by high concentrations

Cc1nnc(C(=O)NC(C)(C)c2nc(C(=O)NCc3ccc(F)cc3)c(O)c(=O)n2C)o1 [RAL, raltegravir]
IC50 (HIV-1 BaL [2]; [8]): 3.8 nM
IC50 (HIV-1 BaL [2]; [9]): 1.2 nM

C[C@H](Cn1cnc2c(N)ncnc21)OCP(=O)(O)O [TFV, tenofovir]
Cumulative mass of drug released after 15 minutes [5, 10]: ~40 mg
Cumulative mass of drug released after 60 minutes [5, 10]: ~60 mg
Time to 100% TFV release ([5]; single-drug or 1:1 TFV:LNG PVA fabrics, 20 wt.% theoretical loading): ≤ 30 min
Time of burst release of TFV [6]: ≤ 5 min
IC50 (HIV-1 BaL [7]): 1800 nM
Cytotoxicity to TZM-bl cells (TZM-bl cells): not

ferrous D-gluconate [FeGluc]
Inhibition of sperm function (human swim-out sperm): ineffective

maraviroc [MVC]
IC50 (HIV-1 BaL [2]; drugs released from EC fibers (sustained), read-out: Final ARV drug concentration at IC50): 4.2 nM
IC50 (HIV-1 BaL [2]; drugs released from PVA fibers (pericoital), read-out: Final ARV drug concentration at IC50): 1.6 nM
IC50 (HIV-1 BaL [2]; eluates released from PLLA/PEO fibers, read-out: IC50, drug eluted from fibers): 2.3 nM
Globally shared best fit IC50 (HIV-1 BaL [2]; pure maraviroc and maraviroc released from PVP/PEO electrospun formulations): 6.96 ng/mL
IC50 (HIV-1 BaL [2]; pure maraviroc and maraviroc released from PVP/PEO electrospun formulations, read-out: Globally shared best fit IC50): 13.5 nM
IC50 (HIV-1 BaL [2]; unformulated, read-out: IC50, unformulated drug): 0.9 nM

methyl-β-cyclodextrin [MBCD]
Inhibition of sperm function (human swim-out sperm): ineffective
